Molecular target: T1, Vtc1/Vtc3/Vtc4 complex (VTC complex) (Saccharomyces cerevisiae, UniProt P47075+Q02725, Q02725:K333A/Q02725:K362A/Q02725:K364A/Q02725:Y380F)
T1 construct: full-length subunits co-expressed in Expi293F; Vtc1 C-terminal HA, Vtc3 N-terminal 3xFlag, Vtc4 C-terminal 2xStrep; detergent-purified; 3:1:1 pentamer; with Vacuolar transporter chaperone complex subunit 1
T1 sequence (P47075 1-721): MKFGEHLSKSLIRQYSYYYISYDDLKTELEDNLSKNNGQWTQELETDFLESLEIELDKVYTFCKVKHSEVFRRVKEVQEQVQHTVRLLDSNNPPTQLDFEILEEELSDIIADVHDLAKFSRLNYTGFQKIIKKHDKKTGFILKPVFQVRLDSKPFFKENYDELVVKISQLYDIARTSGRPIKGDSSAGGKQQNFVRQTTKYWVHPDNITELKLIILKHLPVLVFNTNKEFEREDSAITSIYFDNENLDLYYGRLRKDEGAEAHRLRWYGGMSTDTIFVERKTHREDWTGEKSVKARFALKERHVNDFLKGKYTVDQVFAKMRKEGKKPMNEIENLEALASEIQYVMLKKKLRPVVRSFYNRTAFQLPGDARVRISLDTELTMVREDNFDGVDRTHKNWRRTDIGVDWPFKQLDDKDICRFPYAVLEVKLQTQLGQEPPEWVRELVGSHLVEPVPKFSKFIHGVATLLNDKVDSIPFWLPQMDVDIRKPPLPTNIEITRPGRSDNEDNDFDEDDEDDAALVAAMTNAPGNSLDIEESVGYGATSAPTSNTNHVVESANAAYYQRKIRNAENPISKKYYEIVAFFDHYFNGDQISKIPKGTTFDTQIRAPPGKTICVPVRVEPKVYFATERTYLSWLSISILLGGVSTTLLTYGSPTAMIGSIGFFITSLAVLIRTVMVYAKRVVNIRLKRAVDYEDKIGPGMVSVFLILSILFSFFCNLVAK
T1 sequence (Q02725 1-835 K333A/K362A/K364A/Y380F): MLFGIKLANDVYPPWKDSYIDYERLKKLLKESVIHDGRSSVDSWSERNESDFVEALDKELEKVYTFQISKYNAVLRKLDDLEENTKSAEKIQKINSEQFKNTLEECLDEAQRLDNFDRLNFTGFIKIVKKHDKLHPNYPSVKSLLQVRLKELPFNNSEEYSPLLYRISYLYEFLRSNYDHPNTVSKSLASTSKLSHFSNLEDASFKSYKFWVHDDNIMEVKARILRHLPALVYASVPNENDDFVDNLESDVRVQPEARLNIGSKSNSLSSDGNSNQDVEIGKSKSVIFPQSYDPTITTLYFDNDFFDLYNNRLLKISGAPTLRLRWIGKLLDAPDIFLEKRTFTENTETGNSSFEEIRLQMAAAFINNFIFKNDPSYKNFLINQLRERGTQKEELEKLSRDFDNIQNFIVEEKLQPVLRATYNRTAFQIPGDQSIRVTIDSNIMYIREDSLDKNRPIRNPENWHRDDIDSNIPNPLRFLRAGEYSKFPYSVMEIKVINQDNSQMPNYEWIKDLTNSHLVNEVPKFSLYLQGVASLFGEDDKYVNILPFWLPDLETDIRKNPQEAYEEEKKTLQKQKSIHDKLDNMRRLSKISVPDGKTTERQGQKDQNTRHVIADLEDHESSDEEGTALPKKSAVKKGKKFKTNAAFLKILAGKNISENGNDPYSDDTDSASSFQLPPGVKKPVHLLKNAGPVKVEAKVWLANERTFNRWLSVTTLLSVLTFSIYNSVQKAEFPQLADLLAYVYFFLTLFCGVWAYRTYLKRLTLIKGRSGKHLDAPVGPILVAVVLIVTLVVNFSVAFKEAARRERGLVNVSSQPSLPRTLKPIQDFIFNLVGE
T1 sequence (P40046 2-129 partner): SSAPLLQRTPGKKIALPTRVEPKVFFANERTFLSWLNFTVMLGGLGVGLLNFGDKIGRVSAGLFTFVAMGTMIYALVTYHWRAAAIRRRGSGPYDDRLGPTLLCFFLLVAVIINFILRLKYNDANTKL
Experiment: polyP synthesis, TBE-PAGE
Assay type: biochemical
Conditions: activator; 15 mM ATP, 10 mM MgCl2, 1 mM MnCl2, 0.5 mM pyrophosphate, 27 °C; TTM cleft (second site) mutant

## O=P(O)(O)O[C@H]1[C@H](OP(=O)(O)O)[C@@H](OP(=O)(O)O)[C@H](OP(=O)(O)O)[C@@H](OP(=O)(O)O)[C@H]1OP(=O)(O)O [InsP6]
  polyP synthesis, TBE-PAGE: had little impact on InsP6-stimulated polyP synthesis by VTC complex

— article PMC9911596 (Nature Communications, 2023)
